Data on 1 compound can be found in PMC8670242, “Functional Characterization and Structural Insights Into Stereoselectivity of Pulegone Reductase in Menthol Biosynthesis” (Frontiers in Plant Science, 2021).

In this assay the target is T1, ArPR (Agastache rugosa, UniProt A0A977TNC5).
T1 construct: pET28a (BamHI/SacI) His-tag fusion, E. coli BL21(DE3), Ni-NTA and gel filtration
Nature of the assay: in vitro reduction, GC. It is filed as biochemical. The note with it: NADPH.

T1 sequence (A0A977TNC5 1-343): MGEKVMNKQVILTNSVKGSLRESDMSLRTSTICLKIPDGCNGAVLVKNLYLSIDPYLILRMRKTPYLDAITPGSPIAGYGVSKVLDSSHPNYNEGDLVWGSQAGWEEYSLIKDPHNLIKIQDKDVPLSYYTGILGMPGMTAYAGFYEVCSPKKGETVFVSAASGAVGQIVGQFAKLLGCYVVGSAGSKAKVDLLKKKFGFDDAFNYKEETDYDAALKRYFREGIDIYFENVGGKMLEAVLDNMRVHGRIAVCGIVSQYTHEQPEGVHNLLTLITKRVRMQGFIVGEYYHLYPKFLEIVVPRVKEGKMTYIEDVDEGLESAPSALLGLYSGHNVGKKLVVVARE

Consider `CC(C)=C1CC[C@H](C)CC1=O` [(−)-pulegone], for which the “in vitro reduction, GC” value is given as “showed a higher preference for (−)-pulegone over (+)-pulegone”.
